The results in this text go back to patent US8263776B2, “Inhibitors of c-Met protein kinase” (Vertex Pharmaceuticals Incorporated, priority 2009, dated 2012).

Some results are limits rather than exact numbers.

In one assay the target is c-Met (Homo sapiens, UniProt P08581). In words: c-Met kinase inhibition assay (radiometric, 33P-ATP, polyE4Y substrate). The format is biochemical. Conditions: 0.5 nM c-Met, 35 μM ATP, competitive tight-binding fit. How it is done:
The compounds of the invention were screened for their ability to inhibit c-Met kinase using a standard radiometric assay. Briefly, in this kinase assay the transfer of the terminal ^33P-phosphate in ^33P-ATP to substrate polyE4Y is interrogated. The assay was carried out in 96-well plates to a final volume of 100 μL per well containing 0.5 nM c-Met, 100 mM HEPES (pH 7.5), 10 mM MgCl2, 25 mM NaCl, 0.01% BSA, 1 mM DTT, 0.5 mg/mL polyE4Y, and 35 μM ATP. Accordingly, compounds of the invention were dissolved in DMSO to make 10 mM initial stock solutions. Serial dilutions in DMSO were then made to obtain the final solutions for the assay. A 1.5 μL aliquot of DMSO or inhibitor in DMSO was added to each well, followed by the addition of ^33P-ATP, and finally the addition of c-Met and polyE4Y (obtained from Sigma). After 20 min, the reaction was quenched with 50 μL of 30% trichloroacetic acid (TCA) containing 4 mM ATP. The reaction mixture was transferred to the 0.66 mm GF filter plates (Corning) and washed three times with 5% TCA. Following the addition of 50 μL of Ultimate Gold™ high efficiency scintillant (Packard Bioscience), the samples were counted in a Packard TopCount NXT Microplate Scintillation and Luminescence Counter (Packard BioScience). The Ki values, shown in Table 2, were calculated using Microsoft Excel Solver macros to fit the data to the kinetic model for competitive tight-binding inhibition.

Assay [1] relates to Snu5-AP1-Luc-Pest cells (c-Met). In words: Inhibition of c-Met activity in Snu5 gastric carcinoma cells (Snu5-AP1-Luc-Pest luciferase reporter). The format is cell-based. To be noted: Homo sapiens, SNU-5, 6 hours incubation, luciferase signal. From the text: Compounds of formula I were also screened for their ability to inhibit the Luciferase-induced signal in an engineered Snu5 cell line. Snu5 [obtained from American Type Culture Collection (Catalog number CRL-5973)] is a human gastric carcinoma known to overexpress c-Met, which is constitutively active. The cell line was transduced with the retrovirus, pCLPCX, which contains a genetic construct consisting of 6×AP 1 promoter response elements and a luciferase gene having a C-terminal PEST sequence (proteolytic signal from mouse ornithine decarboxylase, which reduces the half-life of the luciferase). The constitutively active c-Met activates cellular pathways (principally MAP kinase), resulting in AP-1-induced transcription of luciferase-PEST and translation into the final product, the activity of which is quantifiable as a chemiluminescent readout upon the addition of luciferin (Steady-Glo from Promega). Residual luminescence is strongly correlated to the inhibition of c-Met. A stable cell line was obtained by selecting the new cell line (Snu5-AP1-Luc-Pest) with puromycin. The cells were grown in complete media [Iscove's media (Invitrogen) containing 10% fetal bovine serum (FBS, Hyclone) and penicillin/gentamycin (Invitrogen)]. Compounds of the invention were dissolved in DMSO to make 10 mM initial stock solutions. Serial dilutions in DMSO were then made and transferred to complete medium to make a 10× solution. The Snu5-AP1-Luc-Pest cells were counted and diluted to 200,000-cells/mL solution. The cells (90 μL) were added to each well in a 96-well black with clear bottom plate (Costar). Then 10 μL of the 10× compound solution was added to the cells in triplicate. The plates were incubated in a 37° C./5% CO2 incubator. After 6 hours, 50 μL of the Steady-Glo reagent (Promega) was added to each well and placed on a plate shaker for 5 minutes to ensure that the cells were completely lysed. The plate was read on a 1450 Microbeta Liquid Scintillation and Luminescence Counter (Perkin-Elmer). The IC50 values, shown in Table 2, were calculated using a 4-parameter fit using the graphing software Prism (GraphPad).

Another assay addresses T1, PDE3A (Homo sapiens, UniProt Q14432).
T1 construct: purchased BPS Bioscience 60030
In words: Inhibition of PDE3 (mobility-shift assay, LabChip 3000). The format is biochemical. To be noted: for IC50: PDE3A, iFL-cAMP substrate, 40 minute incubation; for activity against PDE3 compared with the respective enantiomer: statement in words in the summary. An excerpt:
Phosphodiesterase-3 (PDE3) is one of a family of phosphodiesterases responsible for the regulation of cyclic nucleotide second messengers. PDE3 enzymes are involved in regulation of cardiac and vascular smooth muscle contractility. Agents that inhibit PDE3 were originally investigated for the treatment of heart failure but have unwanted arrhythmic side effects. See Dart R. C., Medical Toxicology, Edition 3, page 708; Lippincott 2004.
Compounds of formula I were screened for their ability to inhibit PDE3 in a mobility-shift assay that quantitates the conversion of a flourescent analog of cyclic AMP to a flourescent analog of AMP using a LabChip 3000 (Caliper Life Sciences, Hopkinton, Mass.). Accordingly, a 0.6 μL aliquot of the test compound dissolved in DMSO was placed in a well of a 384-well plate, followed by the addition of a 15 μL aliquot of 200 ng/mL PDE3A (BPS Bioscience, San Diego, Calif., Catalog No. 60030) in 50 mM HEPES buffer at pH 7.5, containing 5 mM MgCl2 and 0.001% Brij-35 (Buffer A). The enzyme and compound were incubated at room temperature for 15 minutes, followed by the addition of a 15 μL aliquot of 2 μM iFL-cAMP (Caliper Life Sciences, Catalog No. 760444) in Buffer A. Following a 40 minute incubation at room temperature, the reaction was quenched by the addition of a 45 μL aliquot of 100 mM HEPES buffer at pH 7.5, containing 30 mM EDTA, 0.015% Brij-35, and 0.1% CR-3 (Caliper Life Sciences). […] Percent conversion was determined using HTS Well Analyzer software (Caliper Life Sciences, v5, SP2). IC50 values were determined using non-linear regression with Prism (v5.0a, GraphPad Software, Inc., La Jolla, Calif.).

Sequence of c-Met (P08581 25-1390): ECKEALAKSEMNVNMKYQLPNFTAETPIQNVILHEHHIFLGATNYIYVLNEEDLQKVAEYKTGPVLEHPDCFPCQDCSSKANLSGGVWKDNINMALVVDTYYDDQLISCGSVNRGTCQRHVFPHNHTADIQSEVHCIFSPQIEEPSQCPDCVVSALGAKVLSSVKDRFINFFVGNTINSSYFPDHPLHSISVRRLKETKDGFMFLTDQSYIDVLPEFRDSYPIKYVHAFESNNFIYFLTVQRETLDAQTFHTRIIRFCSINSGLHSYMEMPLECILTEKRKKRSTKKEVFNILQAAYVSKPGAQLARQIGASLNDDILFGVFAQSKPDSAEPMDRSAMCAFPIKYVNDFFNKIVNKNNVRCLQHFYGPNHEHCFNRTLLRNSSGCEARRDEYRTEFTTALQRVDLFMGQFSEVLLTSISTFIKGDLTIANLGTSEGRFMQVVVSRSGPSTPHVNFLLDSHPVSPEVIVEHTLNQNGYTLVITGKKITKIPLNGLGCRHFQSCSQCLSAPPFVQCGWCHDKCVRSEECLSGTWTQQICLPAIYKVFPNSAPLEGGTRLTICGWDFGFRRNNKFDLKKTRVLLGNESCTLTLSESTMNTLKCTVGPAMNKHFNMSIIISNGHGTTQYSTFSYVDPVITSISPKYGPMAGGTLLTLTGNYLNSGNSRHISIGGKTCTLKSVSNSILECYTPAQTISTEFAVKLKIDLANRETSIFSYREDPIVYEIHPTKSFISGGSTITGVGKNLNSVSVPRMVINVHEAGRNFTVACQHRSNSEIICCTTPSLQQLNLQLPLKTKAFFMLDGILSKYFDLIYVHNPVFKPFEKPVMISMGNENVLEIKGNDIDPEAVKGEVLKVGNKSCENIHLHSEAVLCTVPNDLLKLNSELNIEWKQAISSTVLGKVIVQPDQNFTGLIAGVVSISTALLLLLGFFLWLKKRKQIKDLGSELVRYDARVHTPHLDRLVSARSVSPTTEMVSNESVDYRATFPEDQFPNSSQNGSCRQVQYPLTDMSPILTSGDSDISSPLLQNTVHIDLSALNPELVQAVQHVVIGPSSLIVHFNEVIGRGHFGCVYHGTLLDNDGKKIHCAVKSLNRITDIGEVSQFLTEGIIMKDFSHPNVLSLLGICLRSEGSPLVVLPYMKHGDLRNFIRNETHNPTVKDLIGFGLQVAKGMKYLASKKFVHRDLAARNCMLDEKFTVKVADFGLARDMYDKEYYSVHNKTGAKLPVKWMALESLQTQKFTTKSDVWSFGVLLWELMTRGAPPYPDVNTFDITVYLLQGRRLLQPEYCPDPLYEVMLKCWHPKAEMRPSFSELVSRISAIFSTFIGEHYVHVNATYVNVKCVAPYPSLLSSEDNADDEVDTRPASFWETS
T1 sequence (Q14432 669-1141 limits assumed): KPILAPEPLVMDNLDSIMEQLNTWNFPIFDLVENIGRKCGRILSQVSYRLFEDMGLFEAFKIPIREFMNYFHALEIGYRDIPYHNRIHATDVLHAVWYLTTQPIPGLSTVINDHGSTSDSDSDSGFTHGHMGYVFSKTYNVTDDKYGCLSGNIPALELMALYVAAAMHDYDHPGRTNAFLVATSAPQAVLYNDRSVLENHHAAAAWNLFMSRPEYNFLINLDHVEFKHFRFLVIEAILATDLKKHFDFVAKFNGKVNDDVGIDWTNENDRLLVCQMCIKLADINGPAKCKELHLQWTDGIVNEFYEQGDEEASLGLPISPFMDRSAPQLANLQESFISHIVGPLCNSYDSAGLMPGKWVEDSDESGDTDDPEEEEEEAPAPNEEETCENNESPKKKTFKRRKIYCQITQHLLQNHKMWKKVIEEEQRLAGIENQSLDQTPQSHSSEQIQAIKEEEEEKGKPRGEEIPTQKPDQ

On c-Met, `C[C@H](c1ccc2ncccc2c1)c1nnc2sc(-c3cnn(C)c3)nn12` [Compound 1, 6-((R)-1-(6-(1-methyl-1H-pyrazol-4-yl)-[1,2,4]triazolo[3,4-b][1,3,4]thiadiazol-3-yl)ethyl)quinoline] had a Ki of less than 0.3 µM. In addition, the IC50 in assay [1] was less than 0.1 µM; on PDE3A it was 6.6 µM. Also, the “activity against PDE3 compared with the respective enantiomer” value on PDE3A is listed as “surprisingly less active against PDE3 than their respective enantiomers”.
`C[C@H](c1c(F)cc2ncccc2c1F)c1nnc2sc(-c3cnn(C)c3)nn12` [Compound 2, 5,7-difluoro-6-((R)-1-(6-(1-methyl-1H-pyrazol-4-yl)-[1,2,4]triazolo[3,4-b][1,3,4]thiadiazol-3-yl)ethyl)quinoline] yielded a Ki at c-Met of less than 0.3 µM. In assay [1], this compound showed an IC50 of less than 0.1 µM. At PDE3A, the IC50 turned out to be 6.15 µM and the “activity against PDE3 compared with the respective enantiomer” value is listed as “surprisingly less active against PDE3 than their respective enantiomers”.
On to `C[C@@H](c1c(F)cc2ncccc2c1F)c1nnc2sc(-c3cnn(C)c3)nn12` [Compound 2a], for which the Ki at c-Met was less than 0.3 µM. For the same compound, the IC50 in assay [1] is less than 0.1 µM; on PDE3A, 0.15 µM.
Turning to `C[C@@H](c1ccc2ncccc2c1)c1nnc2sc(-c3cnn(C)c3)nn12` [Compound 1a], the Ki at c-Met is less than 0.3 µM. The results for the IC50 (in assay [1]; on PDE3A) were less than 0.1 µM and 0.76 µM, respectively.
